Like-named read-outs stand apart in the source and are kept apart here.
Legend:
MDA-MB-435 = experiment: NCI 60 cell line five dose, Melanoma
HOP-62 = experiment: NCI 60 cell line five dose, Non-Small Cell Lung Cancer; type: cell-based, human
RXF 393 = experiment: NCI 60 cell line five dose, Renal Cancer
SW-620 = experiment: NCI 60 cell line five dose, Colon Cancer
SN12C = experiment: NCI 60 cell line five dose, Renal Cancer
SNB-75 = experiment: NCI 60 cell line five dose, CNS Cancer
HCT-116 = experiment: NCI 60 cell line five dose, Colon Cancer
CAKI-1 = experiment: NCI 60 cell line five dose, Renal Cancer
UACC-62 = experiment: NCI 60 cell line five dose, Melanoma
UACC-257 = experiment: NCI 60 cell line five dose, Melanoma
BT-549 = experiment: NCI 60 cell line five dose, Breast Cancer

With C=C1C(=O)O[C@H]2[C@H]1CC/C(COC(=O)NCCCCCCCCNC(=O)OC/C1=C/CC[C@@]3(C)O[C@H]3[C@H]3OC(=O)C(=C)[C@@H]3CC1)=C\CC[C@@]1(C)O[C@@H]21 [JVM 3-62, bis(((1aR,7aS, 10aS, 10bS, E)-1a-Methyl-8-methylene-9-oxo-1a,2,3,6,7,7a,8,9,10a,10b-decahydrooxireno[2′,3′:9,10]cyclodeca[1,2-b]furan-5-yl)methyl)octane-1,8-diyldicarbamate] the “Percent Growth” value (MDA-MB-435; Log10 Concentration −4.0) was −86%, the “Percent Growth” value (MDA-MB-435; Log10 Concentration −5.0) was −74% and the “Percent Growth” value (MDA-MB-435; Log10 Concentration −6.0) was −18%. For the same molecule, the “Percent Growth” value (MDA-MB-435; Log10 Concentration −7.0) was 92%, the “Percent Growth” value (MDA-MB-435; Log10 Concentration −8.0) was 91% and the GI50 (MDA-MB-435; molar) was 241 nM. The TGI (MDA-MB-435; molar) was 6.86E−7, the CC50 (MDA-MB-435; read-out: LC50, molar) was 3.74 µM and the “Percent Growth” value (HOP-62; Log10 Concentration −4.0) was −80%. The “Percent Growth” value (HOP-62; Log10 Concentration −5.0) was −64%, the “Percent Growth” value (HOP-62; Log10 Concentration −6.0) was 76% and the “Percent Growth” value (HOP-62; Log10 Concentration −7.0) was 103%. The “Percent Growth” value (HOP-62; Log10 Concentration −8.0) was 103%, the GI50 (HOP-62; molar) was 1530 nM and the TGI (HOP-62; molar) was 3.49E−6. For the same molecule, the CC50 (HOP-62; molar, read-out: LC50 (the source's name)) was 7.95 µM, the “Percent Growth” value (RXF 393; Log10 Concentration −4.0) was −76% and the “Percent Growth” value (RXF 393; Log10 Concentration −5.0) was −92%. For the same molecule, the “Percent Growth” value (RXF 393; Log10 Concentration −6.0) was −82%, the “Percent Growth” value (RXF 393; Log10 Concentration −7.0) was 85% and the “Percent Growth” value (RXF 393; Log10 Concentration −8.0) was 96%. It also gave a GI50 (RXF 393; molar) of 162 nM, a TGI (RXF 393; molar) of 3.22E−7 and a CC50 (RXF 393; read-out: LC50, molar) of 640 nM. The “Percent Growth” value (SW-620; Log10 Concentration −4.0) was −77%, the “Percent Growth” value (SW-620; Log10 Concentration −5.0) was −79% and the “Percent Growth” value (SW-620; Log10 Concentration −6.0) was −18%. The “Percent Growth” value (SW-620; Log10 Concentration −7.0) was 91%, the “Percent Growth” value (SW-620; Log10 Concentration −8.0) was 91% and the GI50 (SW-620; molar) was 239 nM. For the same molecule, the TGI (SW-620; molar) was 6.86E−7, the CC50 (SW-620; read-out: LC50, molar) was 3.37 µM and the “Percent Growth” value (SN12C; Log10 Concentration −4.0) was −59%. For the same molecule, the “Percent Growth” value (SN12C; Log10 Concentration −5.0) was −65%, the “Percent Growth” value (SN12C; Log10 Concentration −6.0) was −7% and the “Percent Growth” value (SN12C; Log10 Concentration −7.0) was 91%. The “Percent Growth” value (SN12C; Log10 Concentration −8.0) was 100%, the GI50 (SN12C; molar) was 264 nM and the CC50 (SN12C; read-out: LC50, molar) was 5.49 µM. For the same molecule, the “Percent Growth” value (SNB-75; Log10 Concentration −4.0) was −100%, the “Percent Growth” value (SNB-75; Log10 Concentration −5.0) was −51% and the “Percent Growth” value (SNB-75; Log10 Concentration −6.0) was 61%. For the same molecule, the “Percent Growth” value (SNB-75; Log10 Concentration −7.0) was 78%, the “Percent Growth” value (SNB-75; Log10 Concentration −8.0) was 72% and the GI50 (SNB-75; molar) was 1250 nM. For the same molecule, the CC50 (SNB-75; read-out: LC50, molar) was 9.84 µM, the “Percent Growth” value (HCT-116; Log10 Concentration −4.0) was −86% and the “Percent Growth” value (HCT-116; Log10 Concentration −5.0) was −92%. The “Percent Growth” value (HCT-116; Log10 Concentration −6.0) was −62%, the “Percent Growth” value (HCT-116; Log10 Concentration −7.0) was 97% and the “Percent Growth” value (HCT-116; Log10 Concentration −8.0) was 98%. The GI50 (HCT-116; molar) was 195 nM, the TGI (HCT-116; molar) was 4.07E−7 and the CC50 (HCT-116; read-out: LC50, molar) was 837 nM. For the same molecule, the “Percent Growth” value (CAKI-1; Log10 Concentration −4.0) was −99%, the “Percent Growth” value (CAKI-1; Log10 Concentration −5.0) was −93% and the “Percent Growth” value (CAKI-1; Log10 Concentration −6.0) was 41%. The “Percent Growth” value (CAKI-1; Log10 Concentration −7.0) was 92%, the “Percent Growth” value (CAKI-1; Log10 Concentration −8.0) was 94% and the GI50 (CAKI-1; molar) was 557 nM. The CC50 (CAKI-1; read-out: LC50, molar) was 4.79 µM, the “Percent Growth” value (UACC-62; Log10 Concentration −4.0) was −77% and the “Percent Growth” value (UACC-62; Log10 Concentration −5.0) was −84%. For the same molecule, the “Percent Growth” value (UACC-62; Log10 Concentration −6.0) was −39%, the “Percent Growth” value (UACC-62; Log10 Concentration −7.0) was 87% and the “Percent Growth” value (UACC-62; Log10 Concentration −8.0) was 96%. For the same molecule, the GI50 (UACC-62; molar) was 197 nM, the TGI (UACC-62; molar) was 4.88E−7 and the CC50 (UACC-62; read-out: LC50, molar) was 1720 nM. For the same molecule, the “Percent Growth” value (UACC-257; Log10 Concentration −4.0) was −55%, the “Percent Growth” value (UACC-257; Log10 Concentration −5.0) was −57% and the “Percent Growth” value (UACC-257; Log10 Concentration −6.0) was 47%. For the same molecule, the “Percent Growth” value (UACC-257; Log10 Concentration −7.0) was 89%, the “Percent Growth” value (UACC-257; Log10 Concentration −8.0) was 97% and the GI50 (UACC-257; molar) was 848 nM. The TGI (UACC-257; molar) was 2.82E−6, the CC50 (UACC-257; read-out: LC50, molar) was 8.51 µM and the “Percent Growth” value (HL-60(TB); Log10 Concentration −4.0) was −39%. The “Percent Growth” value (HL-60(TB); Log10 Concentration −5.0) was −37%, the “Percent Growth” value (HL-60(TB); Log10 Concentration −6.0) was −6% and the “Percent Growth” value (HL-60(TB); Log10 Concentration −7.0) was 92%. The “Percent Growth” value (HL-60(TB); Log10 Concentration −8.0) was 103%, the GI50 (HL-60(TB); molar) was 268 nM and the CC50 (HL-60(TB); read-out: LC50, molar) was over 100 µM. For the same molecule, the “Percent Growth” value (BT-549; Log10 Concentration −4.0) was −85%, the “Percent Growth” value (BT-549; Log10 Concentration −5.0) was −80% and the “Percent Growth” value (BT-549; Log10 Concentration −6.0) was −14%. The “Percent Growth” value (BT-549; Log10 Concentration −7.0) was 94%, the “Percent Growth” value (BT-549; Log10 Concentration −8.0) was 94% and the GI50 (BT-549; molar) was 257 nM. It also gave a TGI (BT-549; molar) of 7.48E−7 and a CC50 (BT-549; read-out: LC50, molar) of 3.57 µM.

Source: US10118935B2, “Melampomagnolide B dimers” (priority 2014, dated 2018)
